Data from the NIST ThermoML archive (doi:10.1016/j.jct.2010.10.016).

Test: xn = mol fraction of the nth substance listed
Details: 101 kPa, Liquid; for viscosity: Capillary tube (Ostwald / Ubbelohde) method; for mass density: Pycnometric method; for speed of sound: Resonance method

C[N+](=O)[O-] [nitromethane] + COCCO
Details	mass density [kg/m3]	speed of sound [m/s]	viscosity [mPa·s]
293.15 K, x1 = 0.05	970.66	1354.7	–
293.15 K, x1 = 0.0501	–	–	1.618
293.15 K, x1 = 0.0998	976.62	1351.1	–
293.15 K, x1 = 0.1024	–	–	1.527
293.15 K, x1 = 0.2	989.24	1345	–
293.15 K, x1 = 0.2162	–	–	1.341
293.15 K, x1 = 0.2991	–	1340	–
293.15 K, x1 = 0.3	1002.64	–	–
293.15 K, x1 = 0.3003	–	–	1.216
293.15 K, x1 = 0.4	1017.06	1335.5	–
293.15 K, x1 = 0.4076	–	–	1.072
293.15 K, x1 = 0.451	–	–	1.02
293.15 K, x1 = 0.4997	–	–	0.964
293.15 K, x1 = 0.4998	–	1331.9	–
293.15 K, x1 = 0.5	1032.73	–	–
293.15 K, x1 = 0.55	–	–	0.91
293.15 K, x1 = 0.6	1049.94	1329.2	–
293.15 K, x1 = 0.6026	–	–	0.859
293.15 K, x1 = 0.6998	–	–	0.775
293.15 K, x1 = 0.7	1068.86	1327.7	–
293.15 K, x1 = 0.7991	–	–	0.71
293.15 K, x1 = 0.8	–	1327.5	–
293.15 K, x1 = 0.8002	1089.69	–	–
293.15 K, x1 = 0.8999	1112.46	1330.3	–
293.15 K, x1 = 0.9001	–	–	0.663
293.15 K, x1 = 0.941	–	–	0.653
293.15 K, x1 = 0.9503	1124.81	1333.7	–
293.15 K, x1 = 1	1137.63	1340.2	0.648
298.15 K, x1 = 0.05	965.94	1338.1	–
298.15 K, x1 = 0.0506	–	–	1.466
298.15 K, x1 = 0.0998	971.79	1334.8	–
298.15 K, x1 = 0.1037	–	–	1.387
298.15 K, x1 = 0.2	984.22	1329.2	–
298.15 K, x1 = 0.2002	–	–	1.249
298.15 K, x1 = 0.2991	–	1324.1	–
298.15 K, x1 = 0.3	997.42	–	–
298.15 K, x1 = 0.3006	–	–	1.118
298.15 K, x1 = 0.4	1011.62	1319.6	–
298.15 K, x1 = 0.4052	–	–	0.994
298.15 K, x1 = 0.4509	–	–	0.944
298.15 K, x1 = 0.4998	–	1315.6	–
298.15 K, x1 = 0.5	1027.07	–	–
298.15 K, x1 = 0.5016	–	–	0.892
298.15 K, x1 = 0.5497	–	–	0.846
298.15 K, x1 = 0.5991	–	–	0.8
298.15 K, x1 = 0.6	1044.03	1312.6	–
298.15 K, x1 = 0.694	–	–	0.725
298.15 K, x1 = 0.7	1062.69	1310.7	–
298.15 K, x1 = 0.7953	–	–	0.666
298.15 K, x1 = 0.8	–	1310.6	–
298.15 K, x1 = 0.8002	1083.23	–	–
298.15 K, x1 = 0.8997	–	–	0.629
298.15 K, x1 = 0.8999	1105.69	1312.9	–
298.15 K, x1 = 0.9454	–	–	0.621
298.15 K, x1 = 0.9503	1117.91	1315.8	–
298.15 K, x1 = 1	1130.62	1320.4	0.619
303.15 K, x1 = 0.05	961.25	1321.7	–
303.15 K, x1 = 0.0585	–	–	1.328
303.15 K, x1 = 0.0998	966.98	1318.5	–
303.15 K, x1 = 0.1015	–	–	1.271
303.15 K, x1 = 0.1989	–	–	1.149
303.15 K, x1 = 0.2	979.15	1312.9	–
303.15 K, x1 = 0.2991	–	1307.4	–
303.15 K, x1 = 0.3	992.16	–	–
303.15 K, x1 = 0.3091	–	–	1.02
303.15 K, x1 = 0.3978	–	–	0.925
303.15 K, x1 = 0.4	1006.16	1302.5	–
303.15 K, x1 = 0.449	–	–	0.875
303.15 K, x1 = 0.4998	–	1298.1	0.828
303.15 K, x1 = 0.5	1021.4	–	–
303.15 K, x1 = 0.5549	–	–	0.782
303.15 K, x1 = 0.59	–	–	0.756
303.15 K, x1 = 0.6	1038.1	1294.5	–
303.15 K, x1 = 0.6977	–	–	0.684
303.15 K, x1 = 0.7	1056.45	1292.2	–
303.15 K, x1 = 0.7979	–	–	0.632
303.15 K, x1 = 0.8	–	1291.7	–
303.15 K, x1 = 0.8002	1076.63	–	–
303.15 K, x1 = 0.8999	1098.72	1293.4	–
303.15 K, x1 = 0.9037	–	–	0.594
303.15 K, x1 = 0.9503	1110.81	1295.1	–
303.15 K, x1 = 0.9508	–	–	0.585
303.15 K, x1 = 1	1123.6	1298.1	0.584
308.15 K, x1 = 0.05	956.53	1310.2	–
308.15 K, x1 = 0.0671	–	–	1.175
308.15 K, x1 = 0.0998	962.12	1307.4	–
308.15 K, x1 = 0.1029	–	–	1.134
308.15 K, x1 = 0.1995	–	–	1.025
308.15 K, x1 = 0.2	974.11	1301.4	–
308.15 K, x1 = 0.2991	–	1295.7	–
308.15 K, x1 = 0.3	986.95	–	–
308.15 K, x1 = 0.3053	–	–	0.917
308.15 K, x1 = 0.4	1000.76	1290.4	–
308.15 K, x1 = 0.4012	–	–	0.833
308.15 K, x1 = 0.4528	–	–	0.792
308.15 K, x1 = 0.4998	–	1285.6	–
308.15 K, x1 = 0.5	1015.8	–	–
308.15 K, x1 = 0.5078	–	–	0.75
308.15 K, x1 = 0.5514	–	–	0.719
308.15 K, x1 = 0.5981	–	–	0.689
308.15 K, x1 = 0.6	1032.3	1281.5	–
308.15 K, x1 = 0.6981	–	–	0.633
308.15 K, x1 = 0.7	1050.38	1278.6	–
308.15 K, x1 = 0.7954	–	–	0.594
308.15 K, x1 = 0.8	–	1277.7	–
308.15 K, x1 = 0.8002	1070.27	–	–
308.15 K, x1 = 0.8985	–	–	0.572
308.15 K, x1 = 0.8999	1092.11	1278.6	–
308.15 K, x1 = 0.9383	–	–	0.569
308.15 K, x1 = 0.9503	1104.13	1279.6	–
308.15 K, x1 = 1	1116.86	1281.2	0.563
313.15 K, x1 = 0.0498	–	–	1.055
313.15 K, x1 = 0.05	951.39	1293.9	–
313.15 K, x1 = 0.0998	956.87	1291.1	–
313.15 K, x1 = 0.1101	–	–	0.999
313.15 K, x1 = 0.2	968.71	1285.4	–
313.15 K, x1 = 0.2081	–	–	0.911
313.15 K, x1 = 0.2991	–	1279.7	–
313.15 K, x1 = 0.3	981.39	–	–
313.15 K, x1 = 0.3023	–	–	0.835
313.15 K, x1 = 0.4	995.04	1274.2	–
313.15 K, x1 = 0.4004	–	–	0.762
313.15 K, x1 = 0.4571	–	–	0.722
313.15 K, x1 = 0.4998	–	1269.3	–
313.15 K, x1 = 0.5	1009.9	–	–
313.15 K, x1 = 0.5015	–	–	0.693
313.15 K, x1 = 0.5566	–	–	0.659
313.15 K, x1 = 0.599	–	–	0.636
313.15 K, x1 = 0.6	1026.19	1265.1	–
313.15 K, x1 = 0.6995	–	–	0.589
313.15 K, x1 = 0.7	1044.07	1262.1	–
313.15 K, x1 = 0.8	–	1260.9	0.562
313.15 K, x1 = 0.8002	1063.69	–	–
313.15 K, x1 = 0.8851	–	–	0.555
313.15 K, x1 = 0.8999	1085.24	1261.5	–
313.15 K, x1 = 0.9387	–	–	0.553
313.15 K, x1 = 0.9503	1097.15	1262.2	–
313.15 K, x1 = 1	1109.87	1262.8	0.545
